# Source: patent publication US9861640B2, “Medicament for treatment of Alzheimer's disease” (KEMPHYS LTD., priority 2013, dated 2018)
# Assays:
# [1] = test system: rat primary microglia; assay: Clearance of 125I-labeled oligomeric Aβ1-42 by rat primary microglia; assay type: cell-based
# From the text: (§1) Primary microglia (type 1) were harvested from primary mixed glial cell cultures prepared from neonatal Wistar rat pups, as previously reported. Mouse microglial cell line MG5 and mouse glial cell line A1 were maintained as previously described. Mouse neuroblastoma cell line N1E-115 and Neuro 2a (American Type Culture Collection, Manassas, Va., USA) were maintained in Dulbecco's modified Eagle's medium (DMEM) supplemented with 10% fetal bovine serum (FBS), 20 U/ml penicillin (Invitrogen, Gaithersburg, Md., USA), and 20 μg/ml streptomycin (Invitrogen). Primary rat microglia were treated with Am80 (5 μM) and/or HX630 (5 μM) in the presence and absence of GW9662 (10 μM) for 48 h in Eagle's MEM supplemented with 10% FBS and 0.2% glucose. MG5 cells and A1 cells were treated with Am80 (5 μM) and/or HX630 (5 μM) for 48 h in DMEM containing 10% FBS. N1E-115 cells were treated with Am80 (5 μM) and/or HX630 (5 μM) for 5 days in DMEM containing 2% FBS.
# ^125I-Labeled oligomeric Aβ1-42 (o-Aβ1-42) was prepared as described. Cells were cultured in 24-well plates for 48 h in Eagle's MEM supplemented with 10% FBS in the presence or absence of Am80 (5 μM) and HX630 (5 μM). After the 48-h treatment, the cells were washed twice with labeling medium (DMEM containing 3% BSA) and then incubated with ^125I-labeled o-Aβ1-42 for 6 h at 37° C. Following the 6-h incubation, medium was removed from each well, and soluble radioactivity in TCA (degraded and extracellularly released peptide fragments) was determined as an index of Aβ degradation in the medium as described previously. The Aβ degradation activity may thus include both receptor-mediated phagocytic activity and extracellular protease-mediated degradation. Cells were washed three times with PBS, then lysed with 0.4 ml of 0.1 M NaOH for 30 min at 37° C., and cell-associated (including cell-incorporated) radioactivity and cell proteins were determined with an autogamma counter and the BCA Protein Assay Reagent (Pierce), respectively. We could not determine the activity of IDE-dependent degradation in this medium, because the incubation medium was replaced with labeling medium prior to incubation with ^[…].
# [2] = test system: TNF-α; settings: in vitro, Aβ peptide-activated [72]; cited from earlier work
# [3] = test system: nitric oxide production; settings: in vitro [72, 73]; cited from earlier work
# [4] = test system: APP/PS1 mice; settings: cited from earlier work
# [5] = test system: RARβ and IL-4Rα mRNAs; settings: murine dendritic cells [66]; cited from earlier work
# [6] = test system: RXR; settings: 20 mg/kg; RXR-specific reporter transgene [48]; cited from earlier work
# [7] = test system: CD36; assay: Immunoblot of CD36 in rat primary microglia; assay type: cell-based; settings: rat primary microglia; co-incubation of GW9662 (10 μM) with HX630 (5 μM), 48 h
# From the text: as §1, with “N1E-115 cells were treated with Am80 (5 μM) and/or HX630 (5 μM) for 5 days in DMEM containing 2% FBS.” left out
# Rat primary microglia and mouse microglial MG5 cells (5×10^6 cells per 100-mm dish) were homogenized in RIPA buffer [10 mM Hepes-NaOH (pH 7.4) containing 150 mM NaCl, 1 mM EDTA, 1% Triton X-100, 0.5% sodium deoxycholate, 0.1% SDS, 1 mM PMSF, 1 mg/ml leupeptin. […] Bound horseradish peroxidase-labeled antibodies were then detected via chemiluminescence (an ECL kit; Pierce, Rockford, Ill., USA). Protein concentrations were determined with the BCA Protein Assay Reagent (Pierce) and Bradford Protein Assay Reagent (Pierce).
# [8] = test system: RARs; settings: at higher concentrations [49]; cited from earlier work
# [9] = test system: Tg2576 mice; settings: T-maze spontaneous alternation and Nest building tests [17]; cited from earlier work
# [10] = mice [17]; cited from earlier work
# [11] = test system: IDE; settings: murine microglial cells [17]; cited from earlier work
compound,measurement,setting,value
O=C(O)CNC(=O)C(CS)Cc1ccccc1 (centres unmarked) [thiorphan],effect on degradation activity in Am80/HX630-treated cells,[1]; thiorphan 30 μM,did not affect
"CC1=C(/C=C/C(C)=C/C=C/C(C)=C/C(=O)O)C(C)(C)CCC1 [ATRA, all trans retinoic acid]",inhibitory effect on TNF-α production,[2],40-50%
same,inhibition of nitric oxide production,[3],complete inhibition
same,memory function in APP/PS1 mice,[4]; ATRA alone [14],improved memory function
same,mRNAs encoding RARβ and IL-4Rα,[5],markedly increased
same,activation of RXR in vivo,[6],activates RXR
insulin: an IDE inhibitor,effect on cell-association and degradation activities in Am80/HX630-treated cells,[1]; insulin 100 μg/ml,inhibited
fucoidan,effect on the HX630- and Am80/HX630-induced increase of o-Aβ1-42 degradation activity,[1]; fucoidan 100 μg/ml,inhibited
O=C(Nc1ccccc1)c1cc([N+](=O)[O-])ccc1Cl [GW9662],effect on the HX630-induced increase in CD36 expression,[7],inhibited
C=C(c1ccc(C(=O)O)cc1)c1cc2c(cc1C)C(C)(C)CCC2(C)C [bexarotene],behavioral defects in APP/PS1 mice,"[4]; mouse, in vivo",improved behavioral defects
same,cross-reactivity with RARs,[8],cross-reactivity
"CC1(C)CCC(C)(C)c2cc(C(=O)Nc3ccc(C(=O)O)cc3)ccc21 [Am580, 4-{(5,6,7,8-tetrahydro5,5,8,8-tetramethyl-2-naphthalenyl)carboxamido}benzoic acid]",cognitive deficits in Tg2576 mice,[9],ameliorated cognitive deficits
same,crossing of the BBB,[10],crosses the BBB
same,IDE activity in the medium,[11],increased
